# In US8987249B2, “Substituted 2-Aza-bicyclo[2.2.1]heptane-3-carboxylic acid (benzyl-cyano-methyl)-amides inhibitors of Cathepsin C” (Boehringer Ingelheim International GmbH, priority 2013, dated 2015):
# Biological target: recombinant human DPPI (Cathepsin C) (Homo sapiens (Human), UniProt P53634)
# Test: Inhibition of human DPPI (Cathepsin C)
# Type: biochemical
# Settings: substrate Gly-Arg-AMC
# Procedure: Inhibition of Human DPPI (Cathepsin C)
# Bovine serum albumin (BSA; Prod. No. A3059) and Dithiothreitol (DTT; Prod. No D0632) were from Sigma. […] The DPP1 inhibitor Gly-Phe-DMK was purchased from MP Biomedicals (Prod.-No. 03DK00625). The recombinant human DPPI was purchased from Prozymex. All other materials were of highest grade commercially available.
# The following buffers were used: MES buffer: 25 mM MES, 50 mM NaCl, 5 mM DTT, adjusted to pH 6.0, containing 0.1% BSA; TAGZyme Buffer: 20 mM NaH2PO4, 150 mM NaCl adjusted to pH 6.0 with HCl
# Then, 5 μL of substrate in MES buffer (final concentration 50 μM) were added. The microtiter plates were then incubated at room temperature for 30 min. Then, the reaction was stopped by adding 10 μL of Gly-Phe-DMK in MES-buffer (final concentration 1 μM).
# The analysis of the data was performed by calculating the percentage of fluorescence in the presence of test compound in comparison to the fluorescence of the vehicle control after subtracting the background fluorescence using the following formula: (RFU(sample)−RFU(background))*100/(RFU(control)−RFU(background))
# Data from these calculations were used to generate IC50 values for inhibition of DPPI, respectively.
# Chain of recombinant human DPPI (Cathepsin C) (P53634 231-394): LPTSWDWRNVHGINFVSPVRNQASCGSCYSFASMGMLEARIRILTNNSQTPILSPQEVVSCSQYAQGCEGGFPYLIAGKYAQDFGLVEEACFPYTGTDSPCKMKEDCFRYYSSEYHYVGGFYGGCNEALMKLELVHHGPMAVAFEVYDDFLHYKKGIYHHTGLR
# Chain of recombinant human DPPI (Cathepsin C) (P53634 395-463): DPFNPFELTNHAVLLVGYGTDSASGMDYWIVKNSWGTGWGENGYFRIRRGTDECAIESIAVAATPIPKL
# Chain of recombinant human DPPI (Cathepsin C) (P53634 25-134): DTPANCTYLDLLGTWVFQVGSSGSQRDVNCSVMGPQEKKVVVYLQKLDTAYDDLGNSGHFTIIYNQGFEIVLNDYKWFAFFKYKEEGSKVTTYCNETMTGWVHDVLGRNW
row,Structure (SMILES),IC50 [nM]
1,N#C[C@H](Cc1cc(-c2cccc(O)n2)ccc1F)NC(=O)[C@H]1N[C@@H]2CC[C@H]1C2 [Example 317],52
2,CCOc1cc(-c2ccc(C[C@@H](C#N)NC(=O)[C@H]3N[C@@H]4CC[C@H]3C4)c(F)c2)cc(S(C)(=O)=O)c1 [Example 275],33
3,CC(C)N1CCN(C(=O)c2cc(-c3ccc(C[C@@H](C#N)NC(=O)[C@H]4N[C@@H]5CC[C@H]4C5)c(F)c3)cs2)CC1 [Example 227],1
4,N#C[C@H](Cc1ccc(N2C3CCC2CN(C2CCOC2)C3)cc1F)NC(=O)[C@H]1N[C@@H]2CC[C@H]1C2 (some centres unmarked) [Example 329],7
5,N#C[C@H](Cc1ccc(N2CCN(C3CCOCC3)CC2)cc1F)NC(=O)[C@H]1N[C@@H]2CC[C@H]1C2 [Example 336],24.5
6,CN1CC2CCN(c3ccc(C[C@@H](C#N)NC(=O)[C@H]4N[C@@H]5CC[C@H]4C5)c(F)c3)C2C1 (some centres unmarked) [Example 353],6.5
7,"N#CC(Cc1ccc2c(c1)[nH]c(=O)c1ccccc12)NC(=O)[C@H]1N[C@@H]2CC[C@H]1C2 (stereo partly drawn) [Example 123, (1S,2S,4R)—N-[1-cyano-2-(6-oxo-5H-phenanthridin-3-yl)ethyl]-3-azabicyclo[2.2.1]heptane-2-carboxamide]",187
8,Cn1cc2ccc(-c3ccc(C[C@@H](C#N)NC(=O)[C@H]4N[C@H]5C[C@@H]4[C@@H]4C[C@@H]45)c(F)c3)cc2n1 [Example 135],286
9,N#CC(Cc1ccc2[nH]c3ccccc3c2c1)NC(=O)[C@H]1N[C@@H]2CC[C@H]1C2 (some centres unmarked) [Example 213],619
10,N#C[C@H](Cc1ccc(-c2csc(C(=O)N3CCn4nccc4C3)c2)cc1F)NC(=O)[C@H]1N[C@@H]2CC[C@H]1C2 [Example 226],0.9
11,N#CC(Cc1cccc2[nH]c(=O)c3cc(F)ccc3c12)NC(=O)[C@H]1N[C@@H]2CC[C@H]1C2 (some centres unmarked) [Example 215],882
12,Cc1cnn(C)c1-c1ccc(C[C@@H](C#N)NC(=O)[C@H]2N[C@@H]3CC[C@H]2C3)c(F)c1 [Example 126],275
13,CN1C(=O)Cc2ccc(-c3ccc(CC(C#N)NC(=O)[C@H]4N[C@@H]5CC[C@H]4C5)c(O)c3)cc21 (some centres unmarked) [Example 120],55.6
14,N#CC(Cc1ccc2c(cnc3ccccc32)c1)NC(=O)[C@H]1N[C@@H]2CC[C@H]1C2 (some centres unmarked) [Example 316],42.4
15,N#C[C@H](Cc1ccc(C2CCN(C3CCOC3)CC2)cc1F)NC(=O)[C@H]1N[C@@H]2CC[C@H]1C2 (some centres unmarked) [Example 337],28.2
16,CCCNC(=O)c1cc(-c2ccc(C[C@@H](C#N)NC(=O)[C@H]3N[C@@H]4CC[C@H]3C4)c(F)c2)cs1 [Example 164],2.3
17,"N#CC(Cc1cccc2[nH]c(=O)c3ccccc3c12)NC(=O)[C@H]1N[C@@H]2CC[C@H]1C2 (stereo partly drawn) [Example 128, (1S,2S,4R)—N-[1-cyano-2-(6-oxo-5H-phenanthridin-1-yl)ethyl]-3-azabicyclo[2.2.1]heptane-2-carboxamide]",2390
18,CS(=O)(=O)c1cc(-c2ccc(C[C@@H](C#N)NC(=O)[C@H]3N[C@H]4CC[C@@H]3C4)c(F)c2)ccc1C#N [Example 214],815
19,CN1CCN(c2ccc(F)c(C[C@@H](C#N)NC(=O)[C@H]3N[C@@H]4CC[C@H]3C4)c2)CC1 [Example 318],212

row,Structure (SMILES),IC50 [nM]
1,N#C[C@H](Cc1ccc(-c2csc(C(=O)N3CCCC3)c2)cc1F)NC(=O)[C@H]1N[C@@H]2CC[C@H]1C2 [Example 165],2.7
2,CCOc1nc(-c2ccc(C[C@@H](C#N)NC(=O)[C@H]3N[C@@H]4CC[C@H]3C4)c(F)c2)cs1 [Example 172],5.2
3,"N#CC(Cc1ccc2[nH]ncc2c1)NC(=O)[C@H]1N[C@@H]2CC[C@H]1C2 (stereo partly drawn) [Example 8, (1S,2S,4R)—N-[1-cyano-2-(1H-indazol-5-yl)ethyl]-3-azabicyclo[2.2.1]heptane-2-carboxamide]",679
4,COC(=O)c1ccc(-c2ccc(C[C@@H](C#N)NC(=O)[C@H]3N[C@@H]4CC[C@H]3C4)c(F)c2)o1 [Example 175],6.3
5,CN1CCN(C(=O)c2cc(-c3ccc(C[C@@H](C#N)NC(=O)[C@H]4N[C@@H]5CC[C@H]4C5)c(F)c3)cs2)CC1 [Example 225],0.8
6,Cn1c(=O)oc2ccc(-c3ccc(C[C@@H](C#N)NC(=O)[C@H]4N[C@H]5C[C@@H]4[C@@H]4C[C@@H]45)c(F)c3)cc21 [Example 129],82.7
7,N#C[C@H](Cc1ccc(N2CCC3CN(C4CCOC4)CC32)cc1F)NC(=O)[C@H]1N[C@@H]2CC[C@H]1C2 (some centres unmarked) [Example 354],6.8
8,"CN1Cc2ccc(-c3ccc(C[C@@H](C#N)NC(=O)[C@H]4N[C@@H]5CC[C@H]4C5)c(F)c3)cc2C1 [Example 1, (1S,2S,4R)—N-[(1S)-1-cyano-2-[2-fluoro-4-(2-methylisoindolin-5-yl)phenyl]ethyl]-3-azabicyclo[2.2.1]heptane-2-carboxamide]",8.6
9,N#CC(Cc1ccc2c(c1)c(=O)[nH]c1ccc(Cl)cc12)NC(=O)[C@H]1N[C@@H]2CC[C@H]1C2 (some centres unmarked) [Example 304],6
10,N#C[C@H](Cc1ccc(OCc2ccccc2)cc1F)NC(=O)[C@H]1N[C@@H]2CC[C@H]1C2 [Example 290],20.6
11,N#C[C@H](Cc1ccc(-c2ccc(C(=O)N3CCOCC3)cc2)cc1F)NC(=O)[C@H]1N[C@@H]2CC[C@H]1C2 [Example 202],22.9
12,CN1CCO[C@@H]2CN(c3ccc(C[C@@H](C#N)NC(=O)[C@H]4N[C@@H]5CC[C@H]4C5)c(F)c3)C[C@@H]21 [Example 355],22.4
13,COC(=O)c1cccc2c1[nH]c(=O)c1cc(CC(C#N)NC(=O)[C@H]3N[C@@H]4CC[C@H]3C4)ccc12 (some centres unmarked) [Example 311],9.9
14,N#CC(Cc1ccc2cn[nH]c2c1)NC(=O)[C@H]1N[C@@H]2CC[C@H]1C2 (some centres unmarked) [Example 127],860
15,N#CC(Cc1ccc2c(c1)[nH]c(=O)c1cc(F)ccc12)NC(=O)[C@H]1N[C@@H]2CC[C@H]1C2 (some centres unmarked) [Example 207],29.1
16,CN(C)C(=O)c1cc(-c2ccc(C[C@@H](C#N)NC(=O)[C@H]3N[C@@H]4CC[C@H]3C4)c(F)c2)cs1 [Example 170],4.2
17,N#C[C@H](Cc1ccc(N2CCCCC2)cc1F)NC(=O)[C@H]1N[C@@H]2CC[C@H]1C2 [Example 197],15.6
18,N#C[C@H](Cc1ccc2c(c1F)CCC(N1CCOCC1)C2)NC(=O)[C@H]1N[C@@H]2CC[C@H]1C2 (some centres unmarked) [Example 351],82.8
19,N#C[C@H](Cc1ccc2ccccc2c1)NC(=O)[C@H]1N[C@@H]2CC[C@H]1C2 [Example 220],253

row,Structure (SMILES),IC50 [nM]
1,CN1CCCN(S(=O)(=O)c2ccc(-c3ccc(C[C@@H](C#N)NC(=O)[C@H]4N[C@@H]5CC[C@H]4C5)c(F)c3)cc2)CC1 [Example 340],1.8
2,CN1CCN(S(=O)(=O)c2cccc(-c3ccc(C[C@@H](C#N)NC(=O)[C@H]4N[C@@H]5CC[C@H]4C5)c(F)c3)c2)CC1 [Example 224],1.2
3,CCOC(=O)c1ccc(-c2ccc(C[C@@H](C#N)NC(=O)[C@H]3N[C@@H]4CC[C@H]3C4)c(F)c2)s1 [Example 179],7.5
4,CN(C)C(=O)c1ccc(-c2ccc(C[C@@H](C#N)NC(=O)[C@H]3N[C@@H]4CC[C@H]3C4)c(F)c2)cc1 [Example 211],61.1
5,N#C[C@H](Cc1ccc(C2CCCN(C3CCOC3)C2)cc1F)NC(=O)[C@H]1N[C@@H]2CC[C@H]1C2 (some centres unmarked) [Example 338],44.3
6,CN1CCO[C@H]2CN(c3ccc(C[C@@H](C#N)NC(=O)[C@H]4N[C@@H]5CC[C@H]4C5)c(F)c3)CC[C@@H]21 [Example 357],33.8
7,Cc1nn(C)cc1-c1ccc(C[C@@H](C#N)NC(=O)[C@H]2N[C@@H]3CC[C@H]2C3)c(F)c1 [Example 160],1.7
8,COCCN1CCC(c2ccc(C[C@@H](C#N)NC(=O)[C@H]3N[C@@H]4CC[C@H]3C4)c(F)c2)C1 (some centres unmarked) [Example 350],38.6
9,COC(=O)c1ccc2[nH]c(=O)c3cc(CC(C#N)NC(=O)[C@H]4N[C@@H]5CC[C@H]4C5)ccc3c2c1 (some centres unmarked) [Example 299],3.2
10,COCC(=O)n1cc(-c2ccc(C[C@@H](C#N)NC(=O)[C@H]3N[C@@H]4CC[C@H]3C4)c(F)c2)cn1 [Example 87],14.2
11,CN1CCO[C@@H]2CCN(c3ccc(C[C@@H](C#N)NC(=O)[C@H]4N[C@@H]5CC[C@H]4C5)c(F)c3)C[C@@H]21 [Example 356],20
12,COc1ccc2[nH]c(=O)c3cc(CC(C#N)NC(=O)[C@H]4N[C@@H]5CC[C@H]4C5)ccc3c2c1 (some centres unmarked) [Example 312],11
13,CC(C)N1CCC(c2ccc(C[C@@H](C#N)NC(=O)[C@H]3N[C@@H]4CC[C@H]3C4)c(F)c2)CC1 [Example 280],21.2
14,C[S+]([O-])c1cc(=O)n(-c2ccc(C[C@@H](C#N)NC(=O)[C@H]3N[C@@H]4CC[C@H]3C4)c(F)c2)cc1F (some centres unmarked) [Example 265],62.7
15,COC(=O)c1cc(C)c(-c2ccc(C[C@@H](C#N)NC(=O)[C@H]3N[C@@H]4CC[C@H]3C4)c(F)c2)s1 [Example 198],15.8
16,CCc1cc(-c2ccc(C[C@@H](C#N)NC(=O)[C@H]3N[C@@H]4CC[C@H]3C4)c(F)c2)nn1CC(C)C [Example 273],28.9
17,Cn1cc(-c2ccc(C[C@@H](C#N)NC(=O)[C@H]3N[C@@H]4CC[C@H]3C4)c(F)c2)cn1 [Example 163],2.1
18,CN1C(=O)Cc2ccc(-c3ccc(CC(C#N)NC(=O)[C@H]4N[C@@H]5CC[C@H]4C5)c(OCc4ccccc4)c3)cc21 (some centres unmarked) [Example 122],182
